This assay concerns the target T1, H3R membranes (H3R8-expressing HEK293 cell line) (Homo sapiens, UniProt Q9Y5N1).
T1 construct: expressed in transfected cells; pcDNA3.1(+) vector, G418 selection)
The experiment in a line: [35S] GTP gamma [S] binding assay. The settings on record: inhibition of [35S]GTP gamma S binding to H3R membranes in presence of agonist R(-)alpha methylhistamine. The assay is classed as biochemical. As for the experimental part:
Membranes isolated as described in (Preparation of Histamine Receptor Subtype Membranes) are used in a [35S]GTPχS functional assay. Binding of [35S]GTPχS to membranes indicates agonist activity. Compounds of the invention of Formula I or Formula II are tested for their ability to inhibit binding in the presence of agonists. Alternately, the same transfected cell lines are used for a cAMP assay wherein H3R agonists inhibit forskolin-activated synthesis of cAMP. Compounds of Formula I or Formula II are tested for their ability to permit forskolin-stimulated cAMP synthesis in the presence of agonist.
cDNA for the human histamine 3 receptor is cloned and expressed as described in (A. Preparation H1R membranes), above. Transfected cells are selected using G418 ([…]), grown, and tested for histamine binding by the SPA described above. For total binding, cells are assayed in a SPA reaction described above containing 50 mM Tris-HCL (assay buffer), pH 7.6, 1 mg wheat germ agglutinin SPA beads (Amersham Pharmacia Biotech, #RPNQ0001), and 1 nM (^3H)-n-alpha-methylhistamine (NEN, NET1027) (total volume per well=200 μl). Thioperimide is added to determine non-specific binding. […]
Antagonist activity of selected compounds is tested for inhibition of [35S] […] Plates are counted in Wallac Trilux 1450 Microbeta scintillation counter for 1 minute. […]
In general terms: GTPγS is a poorly hydrolysed GTP analogue; its binding reports G protein activation.

Consider two molecules from US7951826B2, “Pyrrolidine derivatives as histamine H3 receptor antagonists” (Eli Lilly and Company, priority 2005, dated 2011).

T1 sequence (Q9Y5N1 whole entry): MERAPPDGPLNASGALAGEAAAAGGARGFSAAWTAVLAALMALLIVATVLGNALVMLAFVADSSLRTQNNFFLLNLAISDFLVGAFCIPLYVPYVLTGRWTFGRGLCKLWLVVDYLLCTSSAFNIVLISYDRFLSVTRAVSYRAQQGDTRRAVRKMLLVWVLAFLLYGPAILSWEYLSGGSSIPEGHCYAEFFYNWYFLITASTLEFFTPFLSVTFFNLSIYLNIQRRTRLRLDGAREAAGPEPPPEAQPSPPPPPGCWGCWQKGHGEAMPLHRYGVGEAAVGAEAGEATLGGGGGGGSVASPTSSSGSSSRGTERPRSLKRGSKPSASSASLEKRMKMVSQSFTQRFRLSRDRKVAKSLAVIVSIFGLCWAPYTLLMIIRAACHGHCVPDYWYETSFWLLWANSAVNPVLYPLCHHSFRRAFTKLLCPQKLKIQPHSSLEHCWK

As to `COc1ccc(C(=O)N2CCC[C@H]2CN2CCCC2)cc1`, the Ki (commonly a measure of affinity in units of concentration, obtained from inhibition or displacement) is 73.6 nM.
`CCCCOc1ccc(C(=O)N2CCC[C@@H]2CN2CCCC2)cc1`: the Ki was determined as 145 nM.
